Source: patent US20090291975A1, “DUAL OPIOID PAIN THERAPY” (priority 2008, published 2009)

System: patients following bunionectomy surgery (acute pain)
Experiment: Study 4: opioid adverse events at morphine equivalent doses, bunionectomy study
Settings: morphine equivalent 12 mg, q6h, 48 hr

Structure (SMILES)	Adverse Events (%): Constipation - moderate/severe [%]	Adverse Events (%): Constipation mild/mod/severe [%]	Adverse Events (%): Dizziness - moderate/severe [%]	Adverse Events (%): Dizziness mild/mod/severe [%]	Adverse Events (%): Nausea - moderate/severe [%]	Adverse Events (%): Nausea mild/mod/severe [%]	Adverse Events (%): Vomiting - moderate/severe [%]	Adverse Events (%): Vomiting mild/mod/severe [%]	Dropouts (%)
CN1CC[C@]23c4c5ccc(O)c4O[C@H]2[C@@H](O)C=C[C@H]3[C@H]1C5 [Morphine, morphine]	10	10	7	31	28	59	21	21	7
COc1ccc2c3c1O[C@H]1C(=O)CC[C@@]4(O)[C@@H](C2)N(C)CC[C@]314 [Oxycodone, oxycodone]	6	6	12	24	26	50	21	21	12
